According to patent US20130236960A1, “VITRIFICATED STORAGE SOLUTION FOR CELLS” (priority 2010, published 2013):
Entries after “also recorded” stand apart in the source; their conditions may differ.

Experiments:
[1] = Examination of vitrification promoting substances in 30% DMSO/PBS; type: physicochemical; details: 0.3 M added to 30% DMSO solution
Description: Specifically, the experiment was conducted as follows: • As the vitrification promoting substance, the following saccharides were examined: glucose, sucrose, maltose, fructose, trehalose, raffinose, erythritol, xylitol, sorbitol and mannitol. • The vitrification promoting substance was dissolved in 30% DMSO/PBS to a concentration of 0.3 M and 0.6 M respectively. • The solution thus prepared was divided into 200 μl portions in cryo-tubes, which were dipped into liquid nitrogen for rapid cooling. The tubes were dipped into liquid nitrogen for 5 minutes or more to stabilize the temperature before observation of each tube.

[2] = Solubility at low temperature; type: physicochemical
[3] = Vitrification ability of cell membrane permeable substances by rapid cooling with liquid nitrogen; type: physicochemical; details: 30% solution in PBS
Description: The 10 to 50% solutions of 6 dials (EG, PG, BG, IPG, DPG and PEG) and of DMSO were prepared and confirmed to be vitrified by rapid cooling with liquid nitrogen. Specifically, respective cell membrane permeable substances are dissolved in PBS to concentrations of 10, 20, 30, 40 and 50%, and the solution was stained with a small amount of phenol red in order to readily judge the vitrification. The solution thus prepared was divided into 200 μl portions in cryo-tubes, which were dipped into liquid nitrogen for rapid cooling. The tubes were dipped into liquid nitrogen for 5 minutes or more to stabilize the temperature before observation of each tube.

[4] = tested on: Common marmoset (CM) ES cells; experiment: Cytotoxicity and influence on differentiation with common marmoset ES cells; type: cell-based; details: 2% in culture medium for CMES; for nature of the colony morphology: after 3 days
Description: Specifically, the experiment was conducted as follow • CMES cells were cultured with reference to “Establishment of novel embryonic stem cell lines derived from the common marmoset” ([…], Izawa […], Asano 5, Nakatsuji N, Okano H, Tani K. Stem Cells. 2005 October; 23(9):1304-13). • CMES cells were seeded in a φ35 mm dish to which feeder cells had preliminarily been adhered, and the cell membrane permeable substance was added in an amount corresponding to 2% of the amount of the culture medium. • After 3 days, microscopic observation was conducted, and the presence of the growth suppression and differentiation promotion on CMES cells was examined.

[5] = tested on: Mouse ES cell line strain D3; experiment: Vitrification preservation efficiency with mouse ES cells (trypan blue survival rate, colony observation); type: cell-based; details: for colonies after vitrification, melting and culture: cell membrane permeable substance used alone, 40%, 60 seconds, 3 days culture
Description: The mouse ES cells after vitrification and melting were seeded, and the state of the cells after culture was confirmed by microscopic observation.
(§1) Specifically, the experiment was conducted as follows: • Mouse ES cells were cultured according to the ordinary method. • The mouse ES cells recovered were counted, divided into 10^6 cell portions in 1.5 ml tubes, and centrifuged at 1500 rpm for 5 minutes. • The supernatant was removed, and the cells were suspended in 200 μl of the vitrification medium. • After suspension, DAP213 and the test fluid were dipped into liquid nitrogen after 15 seconds and 60 seconds, respectively, for vitrification. • The tubes were left standing for 5 minutes or more to stabilize the temperature. • The tubes were taken out liquid nitrogen, and the cells were diluted with 1800 μl of the culture medium preliminarily heated to 37° C. and rapidly suspended for melting. • A portion of the suspension was sampled for counting the cells. • On counting the cells, the life or death of cells was judged from the index of the selective excretive ability of the viable cells to trypan blue and the survival rate was calculated. • The remaining cells were seeded in a 24 well plate, and the state after 3 days was confirmed by microscopic observation.
The 40% solution of each cell membrane permeable substance in PBS was prepared, and the mouse ES cells was suspended in the solution, left standing for 60 seconds, and dipped into liquid nitrogen for vitrification.
as §1, with “Specifically,” for “Specifically, the”, “out from” for “out”
as §1, with “Specifically,” for “Specifically, the”, “out from” for “out”, “calculated.” for “calculated. • The remaining cells were seeded in a 24 well plate, and the state after 3 days was confirmed by microscopic observation.”

[6] = Examination of ice crystal growth inhibitor: time for melting the vitrified storage solution; type: physicochemical; details: for time required for the once vitrificated storage solution to be melted completely: 40% EG storage solution with the additive
Description: Examination of the ice crystal growth inhibitor was conducted by comparing the times required for melting the crystallized vitrificated storage solutions. That is, when crystal lumps having the same volume are melted, a polycrystalline substance having a larger total surface area is melted more quickly. It is believed that when the growth of ice crystals is suppressed on the phase transition to crystalline state, the melting time is shortened probably due to the formation of many minute ice crystals.
Specifically, experiment was conducted according to the following procedure. • The test fluid prepared was dispensed in a portion of 200 μl into 1.5 ml microtubes. • Dewar vessel was charged with liquid nitrogen, and a timer was provided. • The microtube was picked up with tweezers and dipped into liquid nitrogen for 40 seconds for vitrification. • The microtube was pulled out from liquid nitrogen, and the time required for complete disappearance of ice within the tube was measured.

[7] = tested on: Common marmoset ES cell line strain CMES40; experiment: Preservation effect on common marmoset ES cells (take rate, ALP-positive colonies); type: cell-based; details: cell membrane permeable substance used alone, with trehalose, 60 seconds
Source text: According to the present invention, it is possible to provide a vitrification medium which is excellent in operability and safety and can efficiently preserve cells, particularly primate ES/iPS cells. Specifically, the take rate of ca. 60% could be obtained even if simian ES cells were suspended in the vitrification medium of the present invention and after 60 seconds the suspension was poured into liquid nitrogen (as described hereinafter, the “take rate” in place of the “survival rate” is used with respect to the preservation efficiency of simian ES cells. In this place, the take rate is calculated on the basis of the number of undifferentiated colonies having taken after three or four days from the seeding of the cells without vitrification as 100). Hitherto, when DAP213, which has been most commonly used, was used, it was important to pour the cell suspension into liquid nitrogen within 15 seconds after suspending the cells in DAP213 for avoiding the lowering of the survival rate. Due to this fact, skillfulness was required for operations and wide dispersion in results was apprehended to occur depending on the technical skills of operators, so that a stable result was not always obtained. […]

OC[C@H]1O[C@H](OC[C@H]2O[C@H](O[C@]3(CO)O[C@H](CO)[C@@H](O)[C@@H]3O)[C@H](O)[C@@H](O)[C@@H]2O)[C@H](O)[C@@H](O)[C@H]1O [raffinose, D-(+)-Raffinose-pentahydrate]
vitrification by rapid cooling in liquid nitrogen [1]: vitrified | solubility [2]: low solubility

C[S+](C)[O-] [DMSO, Dimethyl sulfoxide]
vitrification by rapid cooling with liquid nitrogen [3]: no vitrification occurs | differentiation promoting effect on the CMES cells [4]: no differentiation promoting effect | nature of the colony morphology [4]: good | colonies after vitrification, melting and culture [5]: least number of colonies

CC(O)COC(C)CO (centres unmarked) [DPG, Diprepylene glycol]
vitrification by rapid cooling with liquid nitrogen [3]: vitrified

Bovine serum albumin [reference compound]
time required for the once vitrificated storage solution to be melted completely [6]: an effect similar to that of sericin, its activity remained unsatisfactory

OCCO [EG, Ethylene glycol]
differentiation promoting effect on the CMES cells [4]: no differentiation promoting effect | nature of the colony morphology [4]: good | survival rate after melting ([5]; 40% solution in PBS, left standing for 60 seconds before vitrification): substantially lowered as compared with DMSO+PG; also recorded: second highest | colonies after vitrification, melting and culture [5]: biggest colony | preservation efficiency [7]: high preservation efficiency

OCCCCO [BG, Butylene glycol]
vitrification by rapid cooling with liquid nitrogen [3]: vitrified

OC[C@H]1O[C@@](CO)(O[C@H]2O[C@H](CO)[C@@H](O)[C@H](O)[C@H]2O)[C@@H](O)[C@@H]1O [sucrose, Sucrose, reference compound]
time required for the once vitrificated storage solution to be melted completely [6]: no reduction of melting time

CC(O)CO (centres unmarked) [PG, Propylene glycol]
vitrification by rapid cooling with liquid nitrogen [3]: vitrified | differentiation promoting effect on the CMES cells [4]: no differentiation promoting effect | nature of the colony morphology [4]: good | colonies after vitrification, melting and culture [5]: secondly

CC(N)=O [acetamide, Acetamide]
survival rate, effect of acetamide ([5]; DAP213 versus DP23, vitrification after 60 seconds): reduced | improvement of the survival rate due to acetamide ([5]; DAP213 versus DP23, vitrification within 15 seconds): not recognized

OC[C@H]1O[C@H](O[C@H]2O[C@H](CO)[C@@H](O)[C@H](O)[C@H]2O)[C@H](O)[C@@H](O)[C@@H]1O [trehalose, D-(+)-Trehalose-dihydrate]
vitrification by rapid cooling in liquid nitrogen [1]: vitrified | time required for the once vitrificated storage solution to be melted completely [6]: no reduction of melting time

CC(C)(O)CCO [IPG, Isoprene glycol]
vitrification by rapid cooling with liquid nitrogen [3]: vitrified

sericin
time required for the once vitrificated storage solution to be melted completely [6]: shortened | growth of ice crystals ([6]; concluded from melting time): suppresses the growth of ice crystals
